Source: patent publication US5359138A (Zaidan Hojin Biseibutsu Kagaku Kenkyu KaI, priority 1989, dated 1994)
“Also recorded” adds a separate entry of the source. One block for each molecule: values may come before it. Starred links: 1 amine or outer side, 2 acyl side, 3 side chain; linkers in the order of their positions; H or OH if unused. Non-standard residues stand in square brackets, D forms with d. Residues, ends and D or L forms follow the SMILES beside them. ξ: configuration not given here. *: point of attachment. ξ(3-Amino-2-oxopentanoyl) = CCC(N[*:1])C(=O)C(=O)[*:2]; Abu(ψCOCO) = CC[C@H](N[*:1])C(=O)C(=O)[*:2]; Butanoyl(4-Ph) = O=C(CCCc1ccccc1)*; Cbz = O=C(OCc1ccccc1)*; OBn = c1ccc(CO*)cc1

Key:
prolylendopeptidase = target: T1, prolylendopeptidase (Sus scrofa, UniProt P23687); assay: Determination of anti-prolylendopeptidase activity; type: biochemical, pig; conditions: for PPCE = Propylendopeptidase inhibition activity, IC50: pig kidney enzyme, substrate Z-Gly-Pro-beta-naphthylamide, 37° C., 30 minutes, pH 7.8
T1 construct: a pig kidney sample was subjected to a fractionation operation with ammonium sulfate; from tissue; host or cells: pig kidney
T1 sequence (P23687 whole entry): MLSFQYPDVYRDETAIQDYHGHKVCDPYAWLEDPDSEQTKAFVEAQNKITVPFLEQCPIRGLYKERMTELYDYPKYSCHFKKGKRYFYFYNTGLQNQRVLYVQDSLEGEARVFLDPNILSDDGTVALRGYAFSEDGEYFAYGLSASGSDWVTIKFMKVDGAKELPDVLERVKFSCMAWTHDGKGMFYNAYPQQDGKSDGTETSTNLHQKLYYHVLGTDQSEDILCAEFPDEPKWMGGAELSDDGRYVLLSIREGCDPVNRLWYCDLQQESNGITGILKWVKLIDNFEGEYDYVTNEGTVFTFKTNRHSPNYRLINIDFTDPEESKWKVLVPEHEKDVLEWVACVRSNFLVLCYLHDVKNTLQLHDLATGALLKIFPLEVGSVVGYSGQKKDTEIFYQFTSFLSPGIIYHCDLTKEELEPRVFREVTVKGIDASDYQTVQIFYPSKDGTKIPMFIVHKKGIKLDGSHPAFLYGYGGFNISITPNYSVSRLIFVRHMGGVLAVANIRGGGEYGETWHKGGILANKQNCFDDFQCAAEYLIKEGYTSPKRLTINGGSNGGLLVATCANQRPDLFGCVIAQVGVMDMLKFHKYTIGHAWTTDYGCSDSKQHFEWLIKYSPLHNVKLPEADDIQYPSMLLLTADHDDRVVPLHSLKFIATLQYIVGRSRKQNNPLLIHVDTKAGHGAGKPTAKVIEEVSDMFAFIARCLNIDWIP
Description: The determination of anti-prolylendopeptidase activity was conducted by a modified method based on the method by Yoshimoto et al (Biochim. Biophys. Acta, vol. 569, pages 184-192 (1979)).
A test tube was charged with a solution mixture consisting of (a) 0.2 ml of a solution of 0.5 mM N-benzyloxycarbonyl-L-glycyl-L-prolyl-beta-naphthylamide in 40% dioxane; (b) 0.5 ml of a 0.05M Tris-HCl buffer solution (pH 7.8); and (c) 0.25 ml of an aqueous solution containing the test material. The solution mixture was heated to 37° C. for 3 minutes, and admixed with 0.05 ml of a prolylendopeptidase solution to effect a reaction at 37° C. for 30 minutes. The prolylendopeptidase employed was that which had been obtained according to a modified method based on the enzyme purification method by Koida, Walter et al. (J. Biol. Chem. Vol. 251, pages 7593-7599 (1976), wherein a pig kidney sample was subjected to a fractionation operation with ammonium sulfate, and wherein a purification was effected by a column chromatography employing a DEAE-Sephadex A-50 column.
After the completion of the reaction, the reaction mixture was admixed with 1 ml of a 1M sodium acetate buffer solution containing 10% of Tween-20 and 0.1% of Fast Garnet GBC salt. The reaction mixture was allowed to stand at room temperature for 15 minutes, and then measured for the light absorption at 525 nm (a). At the same time, a control sample, which was free of the test compounds and contained only the buffer solution, was measured for the light absorption (b).
The prolylendopeptidase inhibition activity was determined by employing the formula: […]

cathepsin B = cathepsin B (Homo sapiens, UniProt P07858); assay: Cathepsin B inhibition activity (method by Knight); type: biochemical
Description: The elastase inhibition activity was determined according to a method by Mumford, R. A. et al (J. Biol. Chem., 225, 2227 (1980)). The cathepsin B inhibition activity was determined according to a method by Knight, C. G. (Biochem. J., 189, 447-453 (1980)).

Solubility of poststatin = type: physicochemical; conditions: solvents as named; listed as poststatin
mice = assay: Toxicity, LD50 (i.v.) in mice; type: in vivo
Description: The compounds according to the invention have a low toxicity. In the case of mice, LD50 (i.v.) of poststatin is at least 200 mg/kg. Therefore, it can be expected that the compounds according to the invention will be useful, for instance, as a drug for treating amnesia and autoimmune diseases including systemic erythematosus and the like.

Compound: CCC(NC(=O)[C@@H]1CCCN1C(=O)[C@@H](N)C(C)C)C(=O)C(=O)N[C@H](CC(C)C)C(=O)N[C@H](C(=O)O)C(C)C (stereo partly shown) [Compound 6]
IC50 (prolylendopeptidase): 556 nM
IC50 (cathepsin B; read-out: CatB = Cathepsin B inhibition activity, IC50): > 185000 nM

Compound: CC[C@H](NC(=O)[C@@H](NC(=O)[C@@H](N)C(C)C)C(C)C)C(=O)C(=O)N[C@H](CC(C)C)C(=O)N[C@H](C(=O)O)C(C)C [Compound 1, L-valyl-L-valyl-(3S)-3-amino-2-oxo-pentanoyl-D-leucyl-L-valyl] (H-VV[Abu(ψCOCO)][dL]V-OH)
PPCE = Propylendopeptidase inhibition activity, IC50 (prolylendopeptidase): 0.03 µg/mL
Solubility (Solubility of poststatin): soluble in water, methanol, and dimethyl sulfoxide; also recorded: insoluble in acetone, ethyl acetate, chloroform and hexane
CatB = Cathepsin B inhibition activity, IC50 (cathepsin B): 2.1 µg/mL
LD50 (i.v.) (mice): at least 200 mg/kg

Compound: CC[C@H](NC(=O)[C@@H](NC(=O)[C@@H](NC(=O)OCc1ccccc1)C(C)C)C(C)C)C(=O)C(=O)N[C@H](CC(C)C)C(=O)N[C@H](C(=O)OCc1ccccc1)C(C)C [Compound 2, Z-L-valyl-L-valyl-(3S)-3-amino-2-oxo-pentanoyl-D-leucyl-L-valine benzyl ester] (Cbz-VV[Abu(ψCOCO)][dL]V-OBn)
PPCE = Propylendopeptidase inhibition activity, IC50 (prolylendopeptidase): 1 µg/mL
CatB = Cathepsin B inhibition activity, IC50 (cathepsin B): 100 µg/mL

Continued, values first:

PPCE = Propylendopeptidase inhibition activity, IC50 (prolylendopeptidase): 0.17 µg/mL
CatB = Cathepsin B inhibition activity, IC50 (cathepsin B): 72 µg/mL
Compound: CCC(NC(=O)[C@@H]1CCCN1C(=O)[C@@H](NC(=O)CCCc1ccccc1)C(C)C)C(=O)C(=O)N[C@H](CC(C)C)C(=O)N[C@H](C(=O)O)C(C)C (stereo partly drawn) [Compound 7, phenylbutanoyl-L-valyl-L-propyl-3-amino-2-oxopentanoyl-D-leucyl-L-valine] ({Butanoyl(4-Ph)}-VP[ξ(3-Amino-2-oxopentanoyl)][dL]V-OH)

PPCE = Propylendopeptidase inhibition activity, IC50 (prolylendopeptidase): 0.007 µg/mL
CatB = Cathepsin B inhibition activity, IC50 (cathepsin B): 0.64 µg/mL
Compound: CCC(NC(=O)[C@H](Cc1ccccc1)NC(=O)OCc1ccccc1)C(=O)C(=O)N[C@H](CC(C)C)C(=O)N[C@H](C(=O)O)C(C)C (mixture of isomers) [Compound 4, Z-L-phenylalanyl-(RS)-3-amino-2-oxopentanoyl-D-leucyl-L-valine]

PPCE = Propylendopeptidase inhibition activity, IC50 (prolylendopeptidase): 0.04 µg/mL
CatB = Cathepsin B inhibition activity, IC50 (cathepsin B): 2.2 µg/mL
Compound: CCC(NC(=O)[C@@H](NC(=O)OC(C)(C)C)C(C)C)C(=O)C(=O)N[C@H](CC(C)C)C(=O)OC(C)(C)C (mixture of isomers) [Compound 5, BOC-L-valyl-(RS)-3-amino-2-oxopentanoyl-D-leucyl t-butyl ester]

PPCE = Propylendopeptidase inhibition activity, IC50 (prolylendopeptidase): 0.11 µg/mL
CatB = Cathepsin B inhibition activity, IC50 (cathepsin B): > 100 µg/mL
Compound: CCC(NC(=O)[C@H](Cc1ccccc1)NC(=O)OCc1ccccc1)C(=O)C(=O)N[C@H](CC(C)C)C(=O)N[C@H](C(=O)OC(C)(C)C)C(C)C (mixture of isomers) [Compound 3, Z-L-phenylalanyl-(RS)-3-amino-2-oxopentanoyl-D-leucyl-L-valine t-butyl ester]
